# Test results as given in patent US11040028B2, “Penicinotam derivative, preparation method and use thereof” (OCEAN UNIVERSITY OF CHINA, priority 2017, dated 2021).
# Tested on: BHK-21 cells
# Assay: Anti-fibrosis activity test: inhibition of BHK-21 cell proliferation (CCK-8)
# Assay type: cell-based
# Details: Mesocricetus auratus, BHK-21, 48 h, 48 h, CCK-8
# Outline: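 Proliferation inhibition was read as CCK-8 absorbance at 450 nm (2-hour development) relative to untreated blank, with IC50 fitted from the curve. Before that, adhered cells (2×10^4 cells/mL, 24 hours) had 48 hours' treatment at several concentrations, in triplicate, at 37° C/5% CO2; pirfenidone was the reference.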
row,SMILES,IC50
1,"Cc1cc(C)c2[nH]c3c(c(=O)c2c1)C(=O)n1cccc1-3 [Compound 750a, 5,7-Dimethyl-9H-pyrrolizino[1,2-b]quinoline-9,10(4H)-dione]",0.05 to 5 mM
2,"Cc1ccc2n1C(=O)c1[nH]c3ccccc3c(=O)c1-2 [Compound 799a, 3-Methyl-5H-pyrrolizino[2,1-b]quinoline-5,11(6H)-dione]",0.05 to 5 mM

# Same assay, conditions: Mesocricetus auratus, BHK-21, 48 h, CCK-8, 48 hours after administration
row,SMILES,IC50
1,"CC(C)(C)Cn1c2c(c(=O)c3ccccc31)C(=O)n1cccc1-2 [Compound 656a, 4-Neopentyl-9H-pyrrolizino[1,2-b]quinoline-9,10(4H)-dione]",0.05 to 5 mM
2,"C=CCn1c2c(c(=O)c3ccccc31)C(=O)n1cccc1-2 [Compound 6a, 4-Allyl-9H-pyrrolizino[1,2-b]quinoline-9,10(4H)-dione]",0.05 to 5 mM
3,"O=C1c2c(nc3ccccc3c2OCc2cc(F)c(F)c(F)c2F)-c2cccn21 [Compound 587b, 9-((2,3,4,5-tetrafluorobenzyl)oxy)-10H-pyrrolizino[1,2-b]quinolin-10-one]",0.05 to 5 mM

# Tested on: human lung fibroblasts HFL1
# Assay: Anti-fibrosis activity test: inhibition of proliferation of human lung fibroblasts HFL1 (CCK-8)
# Assay type: cell-based
# Details: Homo sapiens, HFL1, 48 h, HFL1 cells, 48 h, CCK-8
# Outline: (§1)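 Seed 2×10^4 cells/mL; adhere 24 h, 37° C/5% CO2. Compounds, serial concentrations, triplicate, 48 h. CCK-8 2 h, A450. IR=(1−Ai/Ao)×100% vs blank; IC50 fitted. Pirfenidone as positive control.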
row,SMILES,IC50
1,"Cc1cc(C)c2[nH]c3c(c(=O)c2c1)C(=O)n1cccc1-3 [Compound 750a, 5,7-Dimethyl-9H-pyrrolizino[1,2-b]quinoline-9,10(4H)-dione]",0.05 to 5 mM
2,"Cc1ccc2n1C(=O)c1[nH]c3ccccc3c(=O)c1-2 [Compound 799a, 3-Methyl-5H-pyrrolizino[2,1-b]quinoline-5,11(6H)-dione]",0.05 to 5 mM

# Same assay, conditions: Homo sapiens, HFL1, 48 h, human lung fibroblasts HFL1, CCK-8, 48 hours
row,SMILES,IC50
1,"CC(C)(C)Cn1c2c(c(=O)c3ccccc31)C(=O)n1cccc1-2 [Compound 656a, 4-Neopentyl-9H-pyrrolizino[1,2-b]quinoline-9,10(4H)-dione]",0.05 to 5 mM
2,"C=CCn1c2c(c(=O)c3ccccc31)C(=O)n1cccc1-2 [Compound 6a, 4-Allyl-9H-pyrrolizino[1,2-b]quinoline-9,10(4H)-dione]",0.05 to 5 mM
3,"O=C1c2c(nc3ccccc3c2OCc2cc(F)c(F)c(F)c2F)-c2cccn21 [Compound 587b, 9-((2,3,4,5-tetrafluorobenzyl)oxy)-10H-pyrrolizino[1,2-b]quinolin-10-one]",0.05 to 5 mM

# Tested on: human hepatic stellate cells LX-2
# Assay: Anti-fibrosis activity test: inhibition of proliferation of human hepatic stellate cells LX-2 (CCK-8)
# Assay type: cell-based
# Details: Homo sapiens, 48 h, human hepatic stellate cells LX-2, CCK-8, 48 hours
# Outline: as §1
row,SMILES,IC50
1,"CC(C)(C)Cn1c2c(c(=O)c3ccccc31)C(=O)n1cccc1-2 [Compound 656a, 4-Neopentyl-9H-pyrrolizino[1,2-b]quinoline-9,10(4H)-dione]",0.05 to 5 mM
2,"C=CCn1c2c(c(=O)c3ccccc31)C(=O)n1cccc1-2 [Compound 6a, 4-Allyl-9H-pyrrolizino[1,2-b]quinoline-9,10(4H)-dione]",0.05 to 5 mM
3,"O=C1c2c(nc3ccccc3c2OCc2cc(F)c(F)c(F)c2F)-c2cccn21 [Compound 587b, 9-((2,3,4,5-tetrafluorobenzyl)oxy)-10H-pyrrolizino[1,2-b]quinolin-10-one]",0.05 to 5 mM

# Same assay, conditions: Homo sapiens, LX-2, 48 h, LX-2 cells, 48 h, CCK-8
row,SMILES,IC50
1,"Cc1cc(C)c2[nH]c3c(c(=O)c2c1)C(=O)n1cccc1-3 [Compound 750a, 5,7-Dimethyl-9H-pyrrolizino[1,2-b]quinoline-9,10(4H)-dione]",0.05 to 5 mM
2,"Cc1ccc2n1C(=O)c1[nH]c3ccccc3c(=O)c1-2 [Compound 799a, 3-Methyl-5H-pyrrolizino[2,1-b]quinoline-5,11(6H)-dione]",0.05 to 5 mM

# Tested on: human fibrosarcoma cells HT-1080
# Assay: Anti-fibrosis activity test: inhibition of proliferation of human fibrosarcoma cells HT-1080 (CCK-8)
# Assay type: cell-based
# Details: Homo sapiens, HT-1080, 48 h, HT-1080 cells, 48 h, CCK-8
# Outline: as §1
row,SMILES,IC50
1,"Cc1cc(C)c2[nH]c3c(c(=O)c2c1)C(=O)n1cccc1-3 [Compound 750a, 5,7-Dimethyl-9H-pyrrolizino[1,2-b]quinoline-9,10(4H)-dione]",0.05 to 5 mM
2,"Cc1ccc2n1C(=O)c1[nH]c3ccccc3c(=O)c1-2 [Compound 799a, 3-Methyl-5H-pyrrolizino[2,1-b]quinoline-5,11(6H)-dione]",< 0.05 mM

# Same assay, conditions: Homo sapiens, HT-1080, 48 h, human fibrosarcoma cells HT-1080, CCK-8, 48 hours
row,SMILES,IC50
1,"CC(C)(C)Cn1c2c(c(=O)c3ccccc31)C(=O)n1cccc1-2 [Compound 656a, 4-Neopentyl-9H-pyrrolizino[1,2-b]quinoline-9,10(4H)-dione]",0.05 to 5 mM
2,"C=CCn1c2c(c(=O)c3ccccc31)C(=O)n1cccc1-2 [Compound 6a, 4-Allyl-9H-pyrrolizino[1,2-b]quinoline-9,10(4H)-dione]",< 0.05 mM
3,"O=C1c2c(nc3ccccc3c2OCc2cc(F)c(F)c(F)c2F)-c2cccn21 [Compound 587b, 9-((2,3,4,5-tetrafluorobenzyl)oxy)-10H-pyrrolizino[1,2-b]quinolin-10-one]",0.05 to 5 mM

# Tested on: human dermal fibroblasts CCC-ESF-1
# Assay: Anti-fibrosis activity test: inhibition of proliferation of human dermal fibroblasts CCC-ESF-1 (CCK-8)
# Assay type: cell-based
# Details: Fibroblast; human dermal fibroblasts CCC-ESF-1, CCK-8, 48 hours
# Outline: as §1
row,SMILES,IC50
1,"CC(C)(C)Cn1c2c(c(=O)c3ccccc31)C(=O)n1cccc1-2 [Compound 656a, 4-Neopentyl-9H-pyrrolizino[1,2-b]quinoline-9,10(4H)-dione]",0.05 to 5 mM
2,"C=CCn1c2c(c(=O)c3ccccc31)C(=O)n1cccc1-2 [Compound 6a, 4-Allyl-9H-pyrrolizino[1,2-b]quinoline-9,10(4H)-dione]",0.05 to 5 mM
3,"O=C1c2c(nc3ccccc3c2OCc2cc(F)c(F)c(F)c2F)-c2cccn21 [Compound 587b, 9-((2,3,4,5-tetrafluorobenzyl)oxy)-10H-pyrrolizino[1,2-b]quinolin-10-one]",0.05 to 5 mM

# Same assay, conditions: Homo sapiens, Fibroblast; CCC-ESF-1 cells, 48 h, CCK-8
row,SMILES,IC50
1,"Cc1cc(C)c2[nH]c3c(c(=O)c2c1)C(=O)n1cccc1-3 [Compound 750a, 5,7-Dimethyl-9H-pyrrolizino[1,2-b]quinoline-9,10(4H)-dione]",0.05 to 5 mM
2,"Cc1ccc2n1C(=O)c1[nH]c3ccccc3c(=O)c1-2 [Compound 799a, 3-Methyl-5H-pyrrolizino[2,1-b]quinoline-5,11(6H)-dione]",0.05 to 5 mM

# Tested on: human embryonic lung fibroblast IMR-90
# Assay: Anti-fibrosis activity test: inhibition of proliferation of human embryonic lung fibroblast IMR-90 (CCK-8)
# Assay type: cell-based
# Details: Homo sapiens; IMR-90 cells, 48 h, CCK-8
# Outline: as §1
row,SMILES,IC50
1,"Cc1cc(C)c2[nH]c3c(c(=O)c2c1)C(=O)n1cccc1-3 [Compound 750a, 5,7-Dimethyl-9H-pyrrolizino[1,2-b]quinoline-9,10(4H)-dione]",0.05 to 5 mM
2,"Cc1ccc2n1C(=O)c1[nH]c3ccccc3c(=O)c1-2 [Compound 799a, 3-Methyl-5H-pyrrolizino[2,1-b]quinoline-5,11(6H)-dione]",0.05 to 5 mM

# Same assay, conditions: human embryonic lung fibroblast IMR-90, CCK-8, 48 hours
row,SMILES,IC50
1,"CC(C)(C)Cn1c2c(c(=O)c3ccccc31)C(=O)n1cccc1-2 [Compound 656a, 4-Neopentyl-9H-pyrrolizino[1,2-b]quinoline-9,10(4H)-dione]",0.05 to 5 mM
2,"C=CCn1c2c(c(=O)c3ccccc31)C(=O)n1cccc1-2 [Compound 6a, 4-Allyl-9H-pyrrolizino[1,2-b]quinoline-9,10(4H)-dione]",0.05 to 5 mM
3,"O=C1c2c(nc3ccccc3c2OCc2cc(F)c(F)c(F)c2F)-c2cccn21 [Compound 587b, 9-((2,3,4,5-tetrafluorobenzyl)oxy)-10H-pyrrolizino[1,2-b]quinolin-10-one]",0.05 to 5 mM

# Tested on: cardiac fibroblast RAT-iCell-C002
# Assay: Anti-fibrosis activity test: inhibition of proliferation of cardiac fibroblast RAT-iCell-C002 (CCK-8)
# Assay type: cell-based
# Details: Cardiac fibroblast, 48 h, RAT-iCell-C002 cells, CCK-8
# Outline: as §1
row,SMILES,IC50
1,"Cc1cc(C)c2[nH]c3c(c(=O)c2c1)C(=O)n1cccc1-3 [Compound 750a, 5,7-Dimethyl-9H-pyrrolizino[1,2-b]quinoline-9,10(4H)-dione]",0.05 to 5 mM
2,"Cc1ccc2n1C(=O)c1[nH]c3ccccc3c(=O)c1-2 [Compound 799a, 3-Methyl-5H-pyrrolizino[2,1-b]quinoline-5,11(6H)-dione]",0.05 to 5 mM

# Same assay, conditions: Cardiac fibroblast, 48 h, cardiac fibroblast RAT-iCell-C002, CCK-8, 48 hours
row,SMILES,IC50
1,"CC(C)(C)Cn1c2c(c(=O)c3ccccc31)C(=O)n1cccc1-2 [Compound 656a, 4-Neopentyl-9H-pyrrolizino[1,2-b]quinoline-9,10(4H)-dione]",0.05 to 5 mM
2,"C=CCn1c2c(c(=O)c3ccccc31)C(=O)n1cccc1-2 [Compound 6a, 4-Allyl-9H-pyrrolizino[1,2-b]quinoline-9,10(4H)-dione]",0.05 to 5 mM
3,"O=C1c2c(nc3ccccc3c2OCc2cc(F)c(F)c(F)c2F)-c2cccn21 [Compound 587b, 9-((2,3,4,5-tetrafluorobenzyl)oxy)-10H-pyrrolizino[1,2-b]quinolin-10-one]",0.05 to 5 mM

# Tested on: NF-κB
# Assay: Immunological activity test: inhibition of NF-κB activity
# Assay type: cell-based
# Details: initial concentration of 30 μM; a/b isomers given as first/second symbol; read-out: IC50 (μM), inhibitory activity against NF-κB
# Outline: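 Initial screen at 30 μM; parthenolide positive control. IC50s derived from follow-up analysis.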
row,SMILES,IC50
1,"Cc1cc(C)c2[nH]c3c(c(=O)c2c1)C(=O)n1cccc1-3 [Compound 750a, 5,7-Dimethyl-9H-pyrrolizino[1,2-b]quinoline-9,10(4H)-dione]",1 to 10 µM
2,"CC(C)(C)Cn1c2c(c(=O)c3ccccc31)C(=O)n1cccc1-2 [Compound 656a, 4-Neopentyl-9H-pyrrolizino[1,2-b]quinoline-9,10(4H)-dione]",1 to 10 µM
3,"C=CCn1c2c(c(=O)c3ccccc31)C(=O)n1cccc1-2 [Compound 6a, 4-Allyl-9H-pyrrolizino[1,2-b]quinoline-9,10(4H)-dione]",1 to 10 µM
4,"Cc1ccc2n1C(=O)c1[nH]c3ccccc3c(=O)c1-2 [Compound 799a, 3-Methyl-5H-pyrrolizino[2,1-b]quinoline-5,11(6H)-dione]",1 to 10 µM
5,"O=C1c2c(nc3ccccc3c2OCc2cc(F)c(F)c(F)c2F)-c2cccn21 [Compound 587b, 9-((2,3,4,5-tetrafluorobenzyl)oxy)-10H-pyrrolizino[1,2-b]quinolin-10-one]",1 to 10 µM

# Tested on: mouse macrophages (RAW264.7)
# Assay: Lipopolysaccharide-induced NO secretion in macrophages (Griess)
# Assay type: cell-based
# Details: Mus musculus, RAW264.7, 24 h, RAW264.7, LPS 1 μg/ml, a/b isomers given as first/second symbol, read-out: IC50 (μM), inhibition of lipopolysaccharide-induced NO secretion in macrophages
# Outline: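 LPS 1 μg/ml, 24 h, RAW264.7 (DMEM/10% FBS); cpds at varied concs. Supernatant NO by Griess, A548; % inhibition vs blank medium.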
row,SMILES,IC50
1,"Cc1cc(C)c2[nH]c3c(c(=O)c2c1)C(=O)n1cccc1-3 [Compound 750a, 5,7-Dimethyl-9H-pyrrolizino[1,2-b]quinoline-9,10(4H)-dione]",1 to 10 µM
2,"CC(C)(C)Cn1c2c(c(=O)c3ccccc31)C(=O)n1cccc1-2 [Compound 656a, 4-Neopentyl-9H-pyrrolizino[1,2-b]quinoline-9,10(4H)-dione]",1 to 10 µM
3,"C=CCn1c2c(c(=O)c3ccccc31)C(=O)n1cccc1-2 [Compound 6a, 4-Allyl-9H-pyrrolizino[1,2-b]quinoline-9,10(4H)-dione]",1 to 10 µM
4,"Cc1ccc2n1C(=O)c1[nH]c3ccccc3c(=O)c1-2 [Compound 799a, 3-Methyl-5H-pyrrolizino[2,1-b]quinoline-5,11(6H)-dione]",1 to 10 µM
5,"O=C1c2c(nc3ccccc3c2OCc2cc(F)c(F)c(F)c2F)-c2cccn21 [Compound 587b, 9-((2,3,4,5-tetrafluorobenzyl)oxy)-10H-pyrrolizino[1,2-b]quinolin-10-one]",1 to 10 µM
